Laboratory results as given in patent US9464106B2, “Oligonucleotides useful for detecting and analyzing nucleic acids of interest” (Exiqon A/S, priority 2002, dated 2016).
l = locked nucleic acid (LNA); [5mC] = 5-methylcytosine; d = 2'-deoxy (DNA)

Tested on: yeast HSP78 (YDR258C) sequence
Assay: Duplex melting temperatures of HSP78 25-mer capture probes (UV spectrophotometer)
Conditions: 25-mer capture probe duplex with complementary target; design PM = perfectly matched, MM = single mismatch; DNA, LNA_T (T) or LNA_TC (TC) substituted

Substance	Average duplex melting temp.
12772 (DNA TCAATGGCCTTGCACCATATAATTG; DNA, backbone not given here) [compound 12772]	64 °C
12711 (DNA ATCAAATAGGAAATCAGCTAAAGCC; sugars from the 5' end dlddddldddddddddddldddddd, backbone not given here) [compound 12711]	58.1 °C
12685 (DNA GACAGCCTCAGTAAATTGGCCACCA; DNA, backbone not given here) [compound 12685]	64.8 °C
12714 (DNA ATAGCAGCAATGCCCTCGTCTTGGC; DNA at ACG, LNA at T, backbone not given here) [compound 12714]	71.3 °C
12773 (DNA AAAACGACAGCATAAGGCTTTCTTC; DNA, backbone not given here; further chemistry not fully specified) [compound 12773]	64.5 °C
12729 (DNA CAATGATCGTGTTACGGAAATCAAC; sugars from the 5' end lddlddlldlddddldddddllddd, [5mC] at 1, 8, 15, 22, backbone not given here; further chemistry not fully specified) [compound 12729]	75.5 °C
12728 (DNA ACCATCATCACCCAACCTTGTGTCG; sugars from the 5' end dlddlddldddddddddlddlddld, [5mC] at 2, 24, backbone not given here) [compound 12728]	70.2 °C
12684 (DNA GAAACATCGGGGAGCGCTTTTTCAA; DNA, backbone not given here) [compound 12684]	63.8 °C
12799 (DNA CCCAACTTTGTGTCGTTTAATAAAA; DNA at ACG, LNA at T, backbone not given here; further chemistry not fully specified) [compound 12799]	75.1 °C
12720 (DNA TTTGGTAGCACGTCAAGCTTAGTAT; sugars from the 5' end lllddlddddddddddddllddldd, backbone not given here) [compound 12720]	68.6 °C
12707 (DNA TTGGAAACATCGCGGTGCGCTTTTT; sugars from the 5' end lldddddddldddddlddddlllld, backbone not given here) [compound 12707]	68.6 °C
12779 (DNA TTGGAAACATCGGGGTGCGCTTTTT; sugars from the 5' end lldddddddldddddlddddlllld, backbone not given here; further chemistry not fully specified) [compound 12779]	76.7 °C
12687 (DNA ATCAAATAGGAAATCAGCTAAAGCC; DNA, backbone not given here) [compound 12687]	54.3 °C
12803 (DNA TTGGAAACATCGGGGTGCGCTTTTT; sugars from the 5' end lldddddlddlddddldldddldld, [5mC] at 8, 11, 18, backbone not given here; further chemistry not fully specified) [compound 12803]	80.8 °C
12753 (DNA CAATGATCGTGTTACGGAAATCAAC; DNA, backbone not given here; further chemistry not fully specified) [compound 12753]	64.2 °C
12790 (DNA GTTGCCATGGAGTTCAAAATCTGTC; sugars from the 5' end dllddddlddddlddddddldldld, backbone not given here; further chemistry not fully specified) [compound 12790]	74.7 °C
12691 (DNA GCAATGGCCTCGACTTGGCCAACGA; DNA, backbone not given here) [compound 12691]	68.5 °C
12817 (DNA ATAAAGCTGGCAATAGGTCTCTTTT; sugars from the 5' end dlddddllddlddldddllldllld, [5mC] at 7, 11, 19, backbone not given here; further chemistry not fully specified) [compound 12817]	81.2 °C
12809 (DNA AAATAGCAGCAATGGCCTCGTCTTG; sugars from the 5' end dddlddlddlddlddldlldlddld, [5mC] at 7, 10, 16, 19, backbone not given here; further chemistry not fully specified) [compound 12809]	86.8 °C
12822 (DNA ATTGACCTCAAAACTTTCTTGGATA; sugars from the 5' end dllddllllddddllldllldddld, all C 5-methyl, backbone not given here; further chemistry not fully specified) [compound 12822]	75.6 °C
12763 (DNA GCAATGGCCTCGTCTTGGCCAACGA; DNA, backbone not given here; further chemistry not fully specified) [compound 12763]	72.8 °C
12710 (DNA CCGATTAAACGACAGACAGTATGCT; sugars from the 5' end ddddlldddddddddddddldlddd, backbone not given here) [compound 12710]	63.5 °C
12802 (DNA TGGCCTAGGGAATCGGTCAGCTTAC; sugars from the 5' end lddldlddddddllddldddldldd, [5mC] at 4, 14, 21, backbone not given here; further chemistry not fully specified) [compound 12802]	83.6 °C
12778 (DNA TGGCCTAGGGAATCGGTCAGCTTAC; DNA at ACG, LNA at T, backbone not given here; further chemistry not fully specified) [compound 12778]	76.9 °C
12821 (DNA AAAACGACAGCATAAGGCTTTCTTC; sugars from the 5' end ddddlddlddldlddddlldlldld, [5mC] at 5, 8, 11, 18, 22, backbone not given here; further chemistry not fully specified) [compound 12821]	79 °C
12784 (DNA GACCTAAGAACATAAAGCTGGCAAT; sugars from the 5' end ddddldddddddldddddldddddd, backbone not given here; further chemistry not fully specified) [compound 12784]	67.5 °C
12764 (DNA GATGAACTCAGGTGGATAGGATCTT; DNA, backbone not given here; further chemistry not fully specified) [compound 12764]	64 °C
12730 (DNA TGGCCTAGGGAAACGGTCAGCTTAC; sugars from the 5' end lddldlddddddddddldddldldd, [5mC] at 4, 21, backbone not given here) [compound 12730]	75.5 °C
12757 (DNA GACAGCCTCAGTTAATTGGCCACCA; DNA, backbone not given here; further chemistry not fully specified) [compound 12757]	70.2 °C
